# Laboratory results reported in patent publication US5140014A (Abbott Laboratories, priority 1989, dated 1992).
# Read-outs that look alike come from different tables or passages of the source.
# Columns and labels:
# Test in all cases: in vitro antibacterial activity, agar dilution method (MIC)
# Format in all cases: cell-based
# Acinetobacter Sp = details: strain CMX 669; BHI agar, 20-24 hours
# Experimental: (§1) The test medium was Brain Heart Infusion (BHI) agar. The antibacterial agent was dissolved at a concentration of 2,000 ug/mL. Test plates were then prepared, usually 12 two-fold dilutions. After adding the sample to the plates, 10 mL of cooled BHI agar medium was added to each plate. The organisms were grown overnight in BHI broth (Difco) in a 35°-37° C. incubator.
# (§2) On the day of testing, the bacterial suspensions were diluted 1:100 in sterile distilled water, except for a few slow-growing organisms (usually Micrococcus and Streptococcus) which were diluted 1:10. The plate was then inoculated with approximately 10^4 organisms. This was incubated in a 35°-37° C. incubator for 20-24 hours. Thereafter, the plates were read to determine the minimum inhibitory concentration (MIC) defined as the lowest concentration of drug yielding no growth on the plate, a slight haze, or sparsely isolated colonies on the inoculum spot as compared to the growth control.
# Enterobacter Aerogenes = details: strain ATCC 13048; BHI agar, 20-24 hours
# Experimental: as §1, §2
# Enterococcus Faecium = details: strain ATCC 8043; BHI agar, 20-24 hours
# Experimental: as §1, §2
# Haemophilus Influenzae = details: BHI agar, 20-24 hours
# Experimental: as §1, §2
# Klebsiella Pneumoniae = details: strain ATCC 8045; BHI agar, 20-24 hours
# Experimental: as §1, §2
# Micrococcus Luteus = test system: Micrococcus Luteus
# Experimental: as §1, §2
# Providencia Stuartii = details: strain CMX 640, BHI agar, 20-24 hours
# Experimental: as §1, §2
# Pseudomonas Aeruginosa = details: BHI agar, 20-24 hours
# Experimental: as §1, §2
# Staphylococcus Aureus = details: BHI agar, 20-24 hours
# Experimental: as §1, §2
# [1] = test system: Staphylococcus Epidermidis; details: strain 3519; BHI agar, 20-24 hours
# Experimental: as §1, §2
# Streptococcus Agalactiae = details: strain CMX 508; BHI agar, 20-24 hours
# Experimental: as §1, §2
# Streptococcus Bovis = details: Streptococcus equinus, strain A5169, BHI agar, 20-24 hours
# Experimental: as §1, §2
# Streptococcus Pyogenes = details: BHI agar, 20-24 hours
# Experimental: as §1, §2
# Escherichia Coli = details: BHI agar, 20-24 hours
# Experimental: (§3) Compounds 1 to 8 were evaluated for antibacterial activity by the agar dilution method to determine the degree of in vitro susceptibility of aerobic microorganisms to antimicrobial agents. The test medium was Brain Heart Infusion (BHI) agar. The antibacterial agent was dissolved at a concentration of 2,000 ug/mL. Test plates were then prepared, usually 12 two-fold dilutions. After adding the sample to the plates, 10 mL of cooled BHI agar medium was added to each plate. The organisms were grown overnight in BHI broth (Difco) in a 35°-37° C. incubator.
# as §2
# Pseudomonas Cepacia = details: strain 296I, BHI agar, 20-24 hours
# Experimental: as §3, §2
# [2] = strain ATCC 4698, BHI agar, 20-24 hours
smiles,measurement,setting,value
"CCC1OC(=O)CC(O)C(C)C(OC2OC(C)CC(N(C)C)C2O)C(CC=O)CC(C)C(N(C)C)CCC2(C)OC2C1C (stereo not shown) [Example 2, [9R]-9-Deoxo-10,11-dihydro-9-N,N-dimethylamino-rosaramicin]",MIC,Acinetobacter Sp,25 µg/mL
same,MIC,Enterobacter Aerogenes,100 µg/mL
same,MIC,Enterococcus Faecium,12.5 µg/mL
same,MIC,"Haemophilus Influenzae; Haemophilus influenzae, ATCC9795, strain ATCC 9795, read-out: MIC",2 µg/mL
same,MIC,"Haemophilus Influenzae; Haemophilus influenzae, ATCC19418, strain ATCC 19418, read-out: MIC",4 µg/mL
same,MIC,"Haemophilus Influenzae; Haemophilus influenzae, ATCC43095, strain ATCC 43095, read-out: MIC",4 µg/mL
same,MIC,"Haemophilus Influenzae; Haemophilus influenzae, strain 566A, read-out: MIC",2 µg/mL
same,MIC,"Haemophilus Influenzae; Haemophilus influenzae, strain 588A, read-out: MIC",2 µg/mL
same,MIC,"Haemophilus Influenzae; Haemophilus influenzae, strain 632A, read-out: MIC",2 µg/mL
same,MIC,"Haemophilus Influenzae; Haemophilus influenzae, strain 747C, read-out: MIC",2 µg/mL
same,MIC,"Haemophilus Influenzae; Haemophilus influenzae, strain SOL AMP R, read-out: MIC",2 µg/mL
same,MIC,"Haemophilus Influenzae; Haemophilus influenzae, strain SPK AMP R, read-out: MIC",0.5 µg/mL
same,MIC,Haemophilus Influenzae; strain 503B,2 µg/mL
same,MIC,Haemophilus Influenzae; strain 504,2 µg/mL
same,MIC,Haemophilus Influenzae; strain 519A,1 µg/mL
same,MIC,Haemophilus Influenzae; strain 667A,2 µg/mL
same,MIC,Haemophilus Influenzae; strain 751,1 µg/mL
same,MIC,Haemophilus Influenzae; strain 1177,0.25 µg/mL
same,MIC,Haemophilus Influenzae; strain 1435,1 µg/mL
same,MIC,Haemophilus Influenzae; strain ATCC 10211,2 µg/mL
same,MIC,Klebsiella Pneumoniae,25 µg/mL
same,MIC,"Micrococcus Luteus; Micrococcus luteus, ATCC9341, strain ATCC 9341, BHI agar, 20-24 hours, read-out: MIC",3.1 µg/mL
same,MIC,Micrococcus Luteus; [2],6.2 µg/mL
same,MIC,"Providencia Stuartii; Providencia stuartii, read-out: MIC",> 100 µg/mL
same,MIC,"Pseudomonas Aeruginosa; Pseudomonas aeruginosa, strain A5007, read-out: MIC",> 100 µg/mL
same,MIC,"Pseudomonas Aeruginosa; Pseudomonas aeruginosa, strain BMH10, read-out: MIC",> 100 µg/mL
same,MIC,"Pseudomonas Aeruginosa; Pseudomonas aeruginosa, strain K799/WT, read-out: MIC",> 100 µg/mL
same,MIC,Pseudomonas Aeruginosa; strain K799/61,3.1 µg/mL
same,MIC,Staphylococcus Aureus; strain 45,25 µg/mL
same,MIC,Staphylococcus Aureus; strain 45 RAR2,25 µg/mL
same,MIC,Staphylococcus Aureus; strain 642A,50 µg/mL
same,MIC,Staphylococcus Aureus; strain A5177,25 µg/mL
same,MIC,Staphylococcus Aureus; strain ATCC 6538P,25 µg/mL
same,MIC,Staphylococcus Aureus; strain CMX 553,25 µg/mL
same,MIC,Staphylococcus Aureus; strain NCTC 10649,25 µg/mL
same,MIC,[1],25 µg/mL
same,MIC,Streptococcus Agalactiae,3.1 µg/mL
same,MIC,Streptococcus Bovis; read-out: MIC,1.56 µg/mL
same,MIC,"Streptococcus Pyogenes; Streptococcus pyogenes, strain 930 CONST, read-out: MIC",> 100 µg/mL
same,MIC,"Streptococcus Pyogenes; Streptococcus pyogenes, strain EES61, read-out: MIC",3.1 µg/mL
same,MIC,Streptococcus Pyogenes; strain 2548 INDUC,6.2 µg/mL
same,MIC,"Escherichia Coli; Escherichia coli, strain SS, read-out: MIC",0.2 µg/mL
same,MIC,Escherichia Coli; strain DC-2,50 µg/mL
same,MIC,Escherichia Coli; strain JUHL,100 µg/mL
same,MIC,Escherichia Coli; strain KNK 437,50 µg/mL
same,MIC,"Pseudomonas Cepacia; Burkholderia cepacia, read-out: MIC",> 100 µg/mL
"CCC1OC(=O)CC(O)C(C)C(OC2OC(C)CC(N(C)C)C2O)C(CC=O)CC(C)C(N(C)C)CCC2(C)OC2C1C (stereo not shown) [Example 3, [9S]-9-Deoxo-10,11-dihydro-9-N,N-dimethylamino-rosaramicin]",MIC,Acinetobacter Sp,3.1 µg/mL
same,MIC,Enterobacter Aerogenes,12.5 µg/mL
same,MIC,Enterococcus Faecium,0.78 µg/mL
same,MIC,"Haemophilus Influenzae; Haemophilus influenzae, strain 519A, read-out: MIC",0.25 µg/mL
same,MIC,"Haemophilus Influenzae; Haemophilus influenzae, strain 751, read-out: MIC",4 µg/mL
same,MIC,"Haemophilus Influenzae; Haemophilus influenzae, strain 1435, read-out: MIC",0.5 µg/mL
same,MIC,"Haemophilus Influenzae; Haemophilus influenzae, strain DILL AMP R, read-out: MIC",0.5 µg/mL
same,MIC,Haemophilus Influenzae; strain 503B,0.5 µg/mL
same,MIC,Haemophilus Influenzae; strain 504,0.5 µg/mL
same,MIC,Haemophilus Influenzae; strain 566A,1 µg/mL
same,MIC,Haemophilus Influenzae; strain 588A,1 µg/mL
same,MIC,Haemophilus Influenzae; strain 632A,1 µg/mL
same,MIC,Haemophilus Influenzae; strain 667A,0.5 µg/mL
same,MIC,Haemophilus Influenzae; strain 747C,1 µg/mL
same,MIC,Haemophilus Influenzae; strain 1177,0.12 µg/mL
same,MIC,Haemophilus Influenzae; strain ATCC 9795,1 µg/mL
same,MIC,Haemophilus Influenzae; strain ATCC 10211,0.5 µg/mL
same,MIC,Haemophilus Influenzae; strain ATCC 19418,1 µg/mL
same,MIC,Haemophilus Influenzae; strain ATCC 43095,1 µg/mL
same,MIC,Haemophilus Influenzae; strain SOL AMP R,1 µg/mL
same,MIC,Haemophilus Influenzae; strain SPK AMP R,0.25 µg/mL
same,MIC,Klebsiella Pneumoniae,6.2 µg/mL
same,MIC,"Micrococcus Luteus; Micrococcus luteus, ATCC9341",0.2 µg/mL
same,MIC,Micrococcus Luteus; [2],0.39 µg/mL
same,MIC,Providencia Stuartii,> 100 µg/mL
same,MIC,Pseudomonas Aeruginosa; strain A5007,> 100 µg/mL
same,MIC,Pseudomonas Aeruginosa; strain BMH10,100 µg/mL
same,MIC,Pseudomonas Aeruginosa; strain K799/61,0.78 µg/mL
same,MIC,Pseudomonas Aeruginosa; strain K799/WT,100 µg/mL
same,MIC,Staphylococcus Aureus; strain 45,0.78 µg/mL
same,MIC,Staphylococcus Aureus; strain 45 RAR2,1.56 µg/mL
same,MIC,Staphylococcus Aureus; strain 642A,1.56 µg/mL
same,MIC,Staphylococcus Aureus; strain A5177,0.78 µg/mL
same,MIC,Staphylococcus Aureus; strain ATCC 6538P,1.56 µg/mL
same,MIC,Staphylococcus Aureus; strain CMX 553,1.56 µg/mL
same,MIC,Staphylococcus Aureus; strain NCTC 10649,0.78 µg/mL
same,MIC,[1],1.56 µg/mL
same,MIC,Streptococcus Agalactiae,0.2 µg/mL
same,MIC,Streptococcus Bovis,0.05 µg/mL
same,MIC,Streptococcus Pyogenes; strain 930 CONST,> 100 µg/mL
same,MIC,Streptococcus Pyogenes; strain 2548 INDUC,0.78 µg/mL
same,MIC,Streptococcus Pyogenes; strain EES61,0.1 µg/mL
same,MIC,Escherichia Coli; strain DC-2,6.2 µg/mL
same,MIC,Escherichia Coli; strain SS,0.1 µg/mL
same,MIC,Pseudomonas Cepacia,> 100 µg/mL
